From PubChem BioAssay AID1259426 (Fisher Drug Discovery Resource Center, 2018)
Where “and” joins values, the source holds several entries; their conditions need not be identical. Identical values can stand only once. Calls of active or inactive are those of the source.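 The calls were made as follows: active = EC50 under a set limit in control cells lacking the mosquito receptor, marking a fluorescence artifact; inactive = the rest.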

These compounds were tested against HEK293 Galpha15/GCaMP6s without NPYLR7, calcium fluorescence (assay: nonspecific activation in parental Galpha15/GCaMP6s cells – cell-based, HEK293 lacking NPYLR7, counter-screen for mosquito NPYLR7 agonist project, dose response (AID 1259426);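 also: potency for a rise in fluorescence over baseline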).
In the case of CCOC(=O)C1CCCN(c2nc3nonc3nc2N2CCSCC2)C1 (configuration not stated), the EC50 is reported as > 20 µM (inactive).
CC1=NCCc2c1[nH]c1cc(O)ccc21 showed an EC50 of 0.419 µM.
COc1cc(C=CC(=O)c2ccc3c(c2)OCCO3)cc(Br)c1O showed an EC50 of 0.151 µM.
In the case of N#Cc1cc(C(=O)c2cc(Cl)cc(Cl)c2O)cn(-c2nccs2)c1=O, the EC50 is reported as > 20 µM (inactive).
COC(=O)C1CCN(S(=O)(=O)c2c(F)cc(F)cc2Br)CC1 was tested, and the EC50 was > 20 µM (inactive).
In the case of COc1ccc2c(c1)OCC(C=C(C#N)S(=O)(=O)c1ccc(Br)cc1)=C2, the EC50 is reported as > 20 µM (inactive).
O=C(O)CN1C(=O)/C(=C\c2ccc(O)cc2)SC1=S was tested, and the EC50 was 13.3 µM.
For O=C1NC(=S)SC1=Cc1cc(O)c(O)c(Cl)c1, the EC50 was > 20 µM (inactive).
With O=c1oc2cc(O)ccc2cc1-c1nc2ccccc2s1 the EC50 was 0.0533 µM.
In the case of CCOC(=O)c1ccc(N=c2oc3cc(O)ccc3cc2-c2nc3ccccc3[nH]2)cc1, the EC50 is reported as 0.204 µM.
COC(=O)C(C)Sc1nc2sc3c(c2c(=O)n1C)CCC3 (configuration not stated) was tested, and the EC50 was > 20 µM (inactive).
With O=P1(Nc2cc(C(F)(F)F)ccc2Cl)C=C(c2ccccc2)OC(c2ccccc2)=C1 the EC50 was > 20 µM (inactive).
Cc1ccc(/C=C2/Oc3cc(O)ccc3C2=O)s1 gave an EC50 of 17.2 µM.
With N#C/C(=C\c1ccc(O)c(O)c1)C(=O)Nc1ccccc1 the EC50 was > 20 µM (inactive).
O=C(COc1ccccc1)N1CCCC(CNS(=O)(=O)c2cccs2)C1 (configuration not stated) was tested, and the EC50 was > 20 µM (inactive).
Work on COc1ccc(C(=O)C=Cc2cc(OC)c(O)c(OC)c2)cc1F yielded an EC50 of 5.86 µM.
Nc1ncnc2c1ncn2[C@@H]1O[C@H](CO)[C@H](O)C1O (some centres not stated) showed an EC50 of 7.87 µM.
CCN(CC)c1ccc2c(-c3ccccc3C(=O)O)c3ccc(=[N+](CC)CC)cc-3oc2c1 showed an EC50 of 3.62 µM.
In the case of O=C1/C(=C/c2cccc(Cl)c2)Oc2c1ccc(O)c2CN1CCN(CCO)CC1, the EC50 is reported as 11.8 µM.
N#CC1C(=N)Oc2cc(N)ccc2C1c1c(Cl)cccc1Cl (configuration not stated) was tested, and the EC50 was > 20 µM (inactive).
With Cc1nc(Sc2nnc3ccccn23)c2c3c(sc2n1)CCCC3 the EC50 was > 20 µM (inactive).
For CCOC(=O)C1=C(O)/C(=C\c2ccc(N(C)C)cc2)SC1=Nc1ccc(OC)cc1OC, the EC50 was > 20 µM (inactive).
CC[n+]1c(/C=C/C=C2/N(C)c3ccccc3C2(C)C)sc2ccccc21 was tested, and the EC50 was > 20 µM (inactive).
For COc1ccc(CCN2COc3ccc4c(c3C2)O/C(=C\c2ccncc2)C4=O)cc1OC, the EC50 was 14.8 µM.
In the case of N#CC1C(=N)Oc2cc(O)ccc2C1c1ccc(Cl)cc1Cl (configuration not stated), the EC50 is reported as 11.9 µM.
CCCCNC(=O)CCCCCNC(N)=O was tested, and the EC50 was > 20 µM (inactive).
In the case of Cc1nc2ncccc2cc1C(=O)N1CCC2(CCNC(=O)CC2)CC1, the EC50 is reported as > 20 µM (inactive).
For COc1cc(C(=O)N2CCOC(c3ccccc3)C2)cc(OC)c1C (configuration not stated), the EC50 was > 20 µM (inactive).
CC(C)N1CCc2c(sc(NC(=O)C3CC3)c2-c2nc3ccccc3s2)C1 gave an EC50 of 4.79 µM.
CCCc1[nH]n(-c2ccc(Cl)c(Cl)c2)c(=O)c1/C=C1\NC(=O)N(Cc2ccc(C)cc2)C1=O showed an EC50 of 18.9 µM.
Compound O=C1OC2(c3cc(Br)c(O)cc3Oc3c2cc(Br)c(O)[c]3[Hg])c2ccccc21 (configuration not stated) has an EC50 of less than 0.039 µM.
For O=C(CC(c1cccc([N+](=O)[O-])c1)c1c[nH]c2ccccc12)NC1CC1 (configuration not stated), the EC50 was > 20 µM (inactive).
Nc1ccc2c3c(cccc13)C(=O)N(c1ccccc1)C2=O showed an EC50 of 0.415 µM.
With CCN1CC(=Cc2cc(C)n(C3CC3)c2C)C(=O)C(=Cc2cc(C)n(C3CC3)c2C)C1 the EC50 was > 20 µM (inactive).
CCOCCCN1C(=O)C(=Cc2ccccc2O)NC1=S was tested, and the EC50 was 0.0898 µM.
With COc1cccc(-n2c(O)c(C=Nc3cc(OC)ccc3OC)c3ccccc3c2=O)c1 the EC50 was > 20 µM (inactive).
In the case of O=C1NC(c2ccc3c(c2)OCO3)C(C(=O)c2ccccc2)C(O)(C(F)(F)F)N1 (configuration not stated), the EC50 is reported as > 20 µM (inactive).
With CCCC[n+]1c(C)cc(C=C2Sc3ccccc3N2C)cc1C the EC50 was > 20 µM (inactive).
In the case of COc1ccc(NCc2ccc(OC)c(Br)c2)cn1, the EC50 is reported as 5.12 µM.
With COc1cc(/C=C(\C#N)C(=O)c2ccc(O)c(O)c2)cc(I)c1O the EC50 was 6.08 µM.
With COc1cc(Br)c(O)c(/C=N\n2c(C)n[nH]c2=S)c1 the EC50 was > 20 µM (inactive).
In the case of CCNC(=O)[C@H]1O[C@@H](n2cnc3c(N)ncnc32)C(O)[C@H]1O (some centres not stated), the EC50 is reported as less than 0.039 µM.
CCN(CC)c1ccc(/C=C2/SC(=S)N(CC(=O)O)C2=O)cc1 showed an EC50 of 0.355 µM.
CCOc1cc(C=O)c(O)c(C=O)c1 was tested, and the EC50 was 0.893 µM.
For N#C/C(=C/c1ccc(N2CCCCC2)o1)c1cccc(F)c1, the EC50 was > 20 µM (inactive).
CC[C@@]1(O)C(=O)OCc2c1cc1n(c2=O)Cc2cc3c(CN(C)C)c(O)ccc3nc2-1 was tested, and the EC50 was 0.188 µM and 1.35 µM.
With COc1ccccc1CCNC(=O)c1ccc(Cn2c(C)nc3ccccc32)o1 the EC50 was > 20 µM (inactive).
O=C(O)c1ccccc1-c1c2cc(Br)c(=O)cc-2oc2[c]([Hg])c(O)c(Br)cc12 showed an EC50 of less than 0.039 µM.
Work on N#CC1C(=N)SC(=N)C(C#N)C1c1ccccc1F (configuration not stated) yielded an EC50 of 10.2 µM.
C[C@H](O)C(=O)C1=Nc2c(nc(N)[nH]c2=O)NC1 was tested, and the EC50 was > 20 µM (inactive).
CC(C)NC[C@H](O)c1ccc(O)c(O)c1 was tested, and the EC50 was less than 0.039 µM.
COc1ccc(C(=O)C=Cc2cc(Br)c(O)c(OC)c2)cc1F was tested, and the EC50 was less than 0.039 µM.
